We go through 16 compounds from patent publication US7226937B2, “Methods for modulating phototoxicity” (Board of Regents on Behalf of the University of Arizona, priority 2002, dated 2007).

For one data set, the system named is HaCaT keratinocytes. As to the kind of experiment: Proliferation inhibition of HaCaT keratinocytes with or without light. The data set is classed as cell-based. The note with it: for cell proliferation relative to a control (antiproliferative effect): 500 μM compound, HaCaT keratinocytes, no light or UVA 3.3 J/cm^2, 3 days after stimulation. The method, then: (§1) A series of experiments were carried out on HaCaT keratinocytes, and human CF3 fibroblasts. In these experiments, cell samples were contacted with 500 μM of pyridinoline, 500 μM of desmosine, which is an elastin constituent with a structure related to pyridinoline, or 500 μM of vitamin B6 (pyridoxine). Controls received no added compound. In one set of experiments, the cells received no external light source. In another set of experiments, they received UVA light, at 3.3 J/cm^2. The CF3 fibroblasts received solar simulated light, or “SSL,” which combines 2.3 J/cm^2 of UVA light, and 0.12 J/cm^2 of UVB light. Results are shown, in FIG. 2, in terms of percent of cell proliferation relative to a control (no added compound, no light). The measurements were taken 3 days after stimulation.
HaCaT cells, as described supra, were tested in a proliferation inhibition assay. Cell samples received equal amounts of one of the 4 compounds listed supra and were contacted with or without either solar simulated light (“SSL”) as described, supra, or UVA light alone, also as described supra.
The antiproliferative effect of the complexes described in example 4 were tested, by adding either nothing (control), BSA, or the BSA-B6 complexes, and treating or not treating samples of HaCaT keratinocytes with SSL. The BSA and BSA-B6 were added at 10 mg/ml, and the SSL was 2.3 J/cm^2 of UVA plus 0.12 J/cm^2 UVB. Three days after treatment, proliferation was measured using a Coulter counter, and standard methods.

For data set [1], the system named is skin fibroblasts (CF3 cells). The data set is described as follows: Cell protection against sensitized photodamage (TB plus visible light). The data set is classed as cell-based, human. Particulars: test compound 10 mM, TB 3.3 μM, visible light 10.8 J/cm^2; for Cell Protection against Sensitized Photodamage: ± SD, n = 3, CF3 fibroblasts counted after 3 days; for protective effect against sensitized photodamage, in words: CF3 fibroblasts. As to the method:
Cultured skin fibroblasts (CF3 cells) were exposed to photooxidative stress from ^1O2 which had formed, in situ, by dye sensitization.
In brief, 50,000 fibroblasts were seeded in a 35 mm culture dish, and then treated one day later with visible light (90 seconds exposure, providing 10.8 J/cm^2) in the presence or absence of TB (3.3 μM in Hanks buffered salt solution). Five minutes after treatment, cells were washed, with phosphate buffered saline. Test compound (10 mM) was present or absent in the culture during the radiation. After 3 days of cultivation, cells were harvested via trypsinization, and counted using a Coulter counter.
Protection was determined via the formula: […]

The test system of a further data set is ΦX174 plasmid. The data set is described as follows: Suppression of AGE-sensitized DNA (plasmid) cleavage. The data set is classed as biochemical. The note with it: for suppression of AGE-sensitized plasmid cleavage, in words: as in Table 1. From the text:
It is well known that ΦX174 plasmid is cleaved only by combined action of irradiation from solar simulated light, and AGE-pigment enriched protein, which acts as a UV sensitizer. AGE-BSA (“advanced glycation end product” modified bovine serum albumin), is a model for accumulation of endogenous skin sensitizers of the type described supra. Details of the assay showing this will be found in Wondrak, et al., Photochem. Photobiol. […] This assay was used in this example.
Plasmid cleavage was visualized by running samples on 1% agarose gels, and damage, i.e., formation of relaxed, open circular forms from closed circular forms (undamaged) were quantified via densitometry, which permitted assessment of the protective effect of a compound.
AGE-cleavage proceeds in the absence of oxygen, and cannot be suppressed fully via antioxidants. As such, if a compound suppresses plasmid cleavage it cannot be simply considered an antioxidant. In contrast, inhibition via quenching of the excited state, as described supra, must be presumed.
Using this assay, a series of proline related compounds and proline were tested. The structures of the compounds are set forth at FIG. 10. FIG. 11, sets forth the results of these experiments. […]

For data set [2] the following is noted: mixture of TB and L-Pro in PBS; visible light 36 J/cm^2.
Another data set deals with human CF3 fibroblasts. As to the kind of experiment: Proliferation inhibition of CF3 fibroblasts with or without solar simulated light. Type of data set: cell-based. Particulars: 500 μM compound, no light or SSL (2.3 J/cm^2 UVA, 0.12 J/cm^2 UVB), 3 days after stimulation. The method, then: as §1

In the case of `Oc1cccnc1` [3-hydroxypyridine], the “type of light in whose presence the compound functioned” value in the data set on HaCaT keratinocytes (HaCaT cells, SSL or UVA alone) is “functioned in the presence of UVB light as a cell proliferation inhibitor”. Moreover, the “effect on HaCaT cells in proliferation inhibition assay, compared to controls” value with HaCaT keratinocytes (equal amounts of compound, with or without SSL or UVA light) was “inhibitory effect”. As to `O=C(O)[C@@H]1CC(O)CN1` (stereo partly drawn) [4-OH-L-Pro, 4-hydroxy-L-proline], in data set [1], the “Cell Protection against Sensitized Photodamage” value (“Cell Protection” below) worked out at 7.3 ± 2.5%. For the compound `COC(=O)[C@@H]1CC(O)CN1` (stereo partly drawn) [4-OH-L-Pro-OCH3, 4-OH-L-proline methyl ester], in data set [1], the “protective effect against sensitized photodamage, in words” value is “very clear protective effect” and the “Cell Protection” value worked out at 71.0 ± 13.4%. Turning to `CC(C)(S)[C@@H](N)C(=O)O` [D-Penicillamine, D-penicillamine], the “% Inhibition (±SD) of AGE-sensitized DNA cleavage” value (“% Inhibition (±SD)” for short) in the data set on ΦX174 plasmid (20 mM) turned out to be 95.7 ± 0.7%. Further, in the data set with ΦX174 plasmid, the “suppression of AGE-sensitized plasmid cleavage, in words” value (“suppression” for short) is listed as “effective”. For the compound `C1CN2CCN1CC2` [DABCO], in the data set on ΦX174 plasmid (20 mM), the “% Inhibition (±SD)” value turned out to be 32.9 ± 1.1%. `CC(=O)N(O)CCCCCNC(=O)CCC(=O)N(O)CCCCCNC(=O)CCC(=O)N(O)CCCCCN` [DFO]: in the data set on ΦX174 plasmid (1 mM), the “% Inhibition (±SD)” value was 51.3 ± 1.0%.

For the compound `N[C@@H](CCC(=O)N[C@@H](CS)C(=O)NCC(=O)O)C(=O)O` [GSH, glutathione], the “% Inhibition (±SD)” value with ΦX174 plasmid (20 mM) amounted to 100.0 ± 0.0%. Further, the “suppression” value in the data set with ΦX174 plasmid was “effective”. Consider `N[C@@H](Cc1c[nH]cn1)C(=O)O` [L-Histidine], for which, in the data set on ΦX174 plasmid (20 mM), the “% Inhibition (±SD)” value is given as 43.7 ± 0.4%. Turning to `O=C(O)[C@@H]1CCCN1` [L-Pro, proline], in data set [1], the “Cell Protection” value is on record as 6.2 ± 5.4%. Moreover, in data set [2], the “change in HPLC peak, retention time or AUC after light exposure (inertness toward 1O2)” value was “No changes were observed”. With `COC(=O)[C@@H]1CCCN1` [L-Pro-OCH3], the “quenching of photosensitized DNA damage (plasmid cleavage)” value in the data set on ΦX174 plasmid (test compound 100 mM, UVA 2.3 J/cm^2, AGE-BSA 10 mg/ml) is “most potent of the quenchers”. In addition, in data set [1], the “protective effect against sensitized photodamage, in words” value is on record as “very clear protective effect” and the “Cell Protection” value is 83.8 ± 10.9%. Turning to `OC[C@@H](O)[C@@H](O)[C@H](O)[C@H](O)CO` [Mannitol], the “% Inhibition (±SD)” value in the data set on ΦX174 plasmid (20 mM) is 47.5 ± 2.5%. For `CC(=O)N[C@@H](CS)C(=O)O` [NAC, N-acetyl-L-cysteine], the “% Inhibition (±SD)” value in the data set on ΦX174 plasmid (20 mM) turned out to be 99.4 ± 0.9%. Besides, the “suppression” value with ΦX174 plasmid is “effective”.

For `[N-]=[N+]=[N-].[Na+]` [NaN3], the “% Inhibition (±SD)” value in the data set on ΦX174 plasmid (20 mM) is given as 94.0 ± 0.5%. Further, the “suppression” value in the data set with ΦX174 plasmid is given as “effective”. As for `Cc1ncc(CO)c(CO)c1O` [Vitamin B6, pyridoxine], the “cell proliferation relative to a control (antiproliferative effect)” value in the data set with HaCaT keratinocytes and in the data set with human CF3 fibroblasts was “dramatically more efficacy in inhibiting the cellular proliferation” in each case. `N[C@@H](CC[C@@H](O)C[n+]1cc(O)c(C[C@H](N)C(=O)O)c(CC[C@H](N)C(=O)O)c1)C(=O)[O-]` [pyridinoline]: the “cell proliferation relative to a control (antiproliferative effect)” value is “antiproliferative effect, but only in the presence of light” with HaCaT keratinocytes and “antiproliferative effect, but only in the presence of light” in the data set with human CF3 fibroblasts. For the compound Catalase, the “effect of catalase on vitamin B6 sensitization” value in the data set with HaCaT keratinocytes (catalase added at 400 μ/ml, cell type not stated) is recorded as “absolutely no effect”. The “% Inhibition (±SD)” value with ΦX174 plasmid (400 u/mL) came to 57.5 ± 4.7%.
